This is an account of results in patent US20240066027A1 (DOMAIN THERAPEUTICS, priority 2020, published 2024).

Where a name gives a salt, the structure may show the parent alone.

What is called IC50 is the concentration needed to halve the response being measured.

For this experiment, the target named is T1, human PAR-2 (hPAR-2) receptor expressed in HEK-293 T cells in an endogenous manner (Homo sapiens, UniProt P55085).
T1 construct: human PAR-2 (hPAR-2) receptor expressed in HEK-293 T cells in an endogenous manner; endogenous in cells; host or cells: HEK-293 T cells
T1 sequence (P55085 26-397): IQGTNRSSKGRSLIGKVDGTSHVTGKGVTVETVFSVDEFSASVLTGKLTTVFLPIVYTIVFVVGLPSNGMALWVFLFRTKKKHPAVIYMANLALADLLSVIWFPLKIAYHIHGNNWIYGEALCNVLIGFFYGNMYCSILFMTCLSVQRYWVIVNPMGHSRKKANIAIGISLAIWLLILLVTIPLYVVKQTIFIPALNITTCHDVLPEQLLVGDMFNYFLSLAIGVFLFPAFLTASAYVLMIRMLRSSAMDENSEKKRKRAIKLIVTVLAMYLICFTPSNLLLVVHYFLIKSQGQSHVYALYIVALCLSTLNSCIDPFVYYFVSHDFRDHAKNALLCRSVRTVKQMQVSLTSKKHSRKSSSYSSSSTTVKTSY
In words: In vitro human PAR-2 functional antagonist activity using calcium assays (Fluo4AM, FLIPR Tetra). It is filed as cell-based. The settings on record: HEK-293 T cells stimulated by an EC80 of the 2-Furoyl-LIGRLO-NH2 peptide after 10 min incubation with compound; 20 concentrations, duplicate, two independent experiments. In short, it runs like this: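 Antagonist activity was taken as the decrease in the calcium response to an EC80 of 2-Furoyl-LIGRLO-NH2, measured over 5 min. The agonist was added after a 10 min compound-alone step on the same plate. The HEK-293 T cells express PAR-2 endogenously and were loaded with 1 μM Fluo4AM. Signals were referenced to buffer and EC80-alone controls.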
For the molecule `CC(C)(C)n1cc(-c2ccc(Cl)c(F)c2)c2ccc(C(=O)N3CCC4(NC(=O)NC4=O)C(F)(F)C3)nc21` (stereo not shown) [Example 201, 8-(1-(tert-butyl)-3-(4-chloro-3-fluorophenyl)-1H-pyrrolo[2,3-b]pyridine-6-carbonyl)-6,6-difluoro-1,3,8-triazaspiro[4.5]decane-2,4-dione], the IC50 is 20 to 10000 nM.

For `Cc1cccnc1Cn1cc(-c2ccc(Cl)c(F)c2)c2ccc(C(=O)N3CCN(c4cc(C)c(C(=O)O)c(C)n4)CC3(C)C)nc21` [Example 193, 6-(4-(3-(4-chloro-3-fluorophenyl)-1-((3-methylpyridin-2-yl)methyl)-1H-pyrrolo[2,3-b]pyridine-6-carbonyl)-3,3-dimethylpiperazin-1-yl)-2,4-dimethylnicotinic acid hydrochloride], the IC50 is < 20 nM.

For the molecule `CC(C)Cc1nn(-c2ccc(Cl)c(F)c2)c2ccc(C(=O)N3CCNC(=O)C3(C)C)cc12` [Example 228, 4-(1-(4-chloro-3-fluorophenyl)-3-isobutyl-1H-indazole-5-carbonyl)-3,3-dimethylpiperazin-2-one], the IC50 lay within 20 to 10000 nM.

In the case of `Cc1cc(N2CCN(C(=O)c3cc(C)c4c(-c5ccc(Cl)c(F)c5)cn(CC(C)C)c4n3)CC2)nc(C)c1C(=O)O` [Example 189, 6-(4-(3-(4-chloro-3-fluorophenyl)-1-isobutyl-4-methyl-1H-pyrrolo[2,3-b]pyridine-6-carbonyl)piperazin-1-yl)-2,4-dimethylnicotinic acid], the IC50 is > 10000 nM.

`CC[C@H](C)n1cc(-c2ccc(Cl)c(F)c2)c2ccc(C(=O)N3CCN(c4cc(C)c(C(=O)O)c(C)n4)CC3(C)C)nc21` [Example 172, (S)-6-(4-(1-(sec-butyl)-3-(4-chloro-3-fluorophenyl)-1H-pyrrolo[2,3-b]pyridine-6-carbonyl)-3,3-dimethylpiperazin-1-yl)-2,4-dimethylnicotinic acid]: the IC50 was < 20 nM.

`O=C(c1ccc2c(-c3ccc(Cl)c(F)c3)cn(CC(F)(F)F)c2n1)N1CCCOCC1` [Example 32, (3-(4-chloro-3-fluorophenyl)-1-(2,2,2-trifluoroethyl)-1H-pyrrolo[2,3-b]pyridin-6-yl)(1,4-oxazepan-4-yl)methanone]: the IC50 was > 10000 nM.

Consider `Cc1cc2c(-c3ccc(Cl)c(F)c3)cn(CC(C)C)c2nc1C(=O)N1CCN(c2cc(C)c(C(=O)O)c(C)n2)CC1(C)C` [Example 174, 6-(4-(3-(4-chloro-3-fluorophenyl)-1-isobutyl-5-methyl-1H-pyrrolo[2,3-b]pyridine-6-carbonyl)-3,3-dimethylpiperazin-1-yl)-2,4-dimethylnicotinic acid], for which the IC50 was in the range of 20 to 10000 nM.

Take `CC1(C)C(=O)N(CC(N)=O)CCN1C(=O)c1ccc2c(-c3ccc(Cl)c(F)c3)cn(C(C)(C)C)c2n1` [Example 5, 2-(4-(1-(tert-butyl)-3-(4-chloro-3-fluorophenyl)-1H-pyrrolo[2,3-b]pyridine-6-carbonyl)-3,3-dimethyl-2-oxopiperazin-1-yl)acetamide]: the IC50 was < 20 nM.

As for `COC(=O)c1c(C)cc(N2CCN(C(=O)c3ccc4c(n3)c(CC(C)C)nn4-c3ccc(Cl)c(F)c3)C(C)(C)C2)nc1C` [Example 64, methyl 6-(4-(1-(4-chloro-3-fluorophenyl)-3-isobutyl-1H-pyrazolo[4,3-b]pyridine-5-carbonyl)-3,3-dimethylpiperazin-1-yl)-2,4-dimethylnicotinate], the IC50 was > 10000 nM.

On to `CN(C)C(=O)c1ccc(N2CCN(C(=O)c3ccc4c(-c5ccc(Cl)c(F)c5)cn(C(C)(C)C)c4n3)C(C)(C)C2)nc1` [Example 139, 6-(4-(1-(tert-butyl)-3-(4-chloro-3-fluorophenyl)-1H-pyrrolo[2,3-b]pyridine-6-carbonyl)-3,3-dimethylpiperazin-1-yl)-N,N-dimethylnicotinamide], for which the IC50 is < 20 nM.

Consider `Cc1cc(N2CCN(C(=O)c3ccc4c(-c5ccc(Cl)c(F)c5)cn(Cc5ncccn5)c4n3)C(C)(C)C2)nc(C)c1C(=O)O` [Example 158, 6-(4-(3-(4-chloro-3-fluorophenyl)-1-(pyrimidin-2-ylmethyl)-1H-pyrrolo[2,3-b]pyridine-6-carbonyl)-3,3-dimethylpiperazin-1-yl)-2,4-dimethylnicotinic acid], for which the IC50 is 20 to 10000 nM.

In the case of `Cc1c(-c2ccc(Cl)c(F)c2)c2ccc(C(=O)N3CCNC(=O)C3(C)C)nc2n1CC(C)C` [Example 38, 4-(3-(4-chloro-3-fluorophenyl)-1-isobutyl-2-methyl-1H-pyrrolo[2,3-b]pyridine-6-carbonyl)-3,3-dimethylpiperazin-2-one], the IC50 is < 20 nM.

`Cc1cc(N2CCN(C(=O)c3ccc4c(-c5ccc(Cl)c(F)c5)cn(C(C)(C)C)c4n3)CC2CO)nc(C)c1C(=O)O` (stereo not shown) [Example 157, 6-(4-(1-(tert-butyl)-3-(4-chloro-3-fluorophenyl)-1H-pyrrolo[2,3-b]pyridine-6-carbonyl)-2-(hydroxymethyl)piperazin-1-yl)-2,4-dimethylnicotinic acid]: the IC50 fell in the range of 20 to 10000 nM.

Regarding `COCC(C)(C)n1cc(-c2ccc(Cl)c(F)c2)c2ccc(C(=O)N3CCNC(=O)C3(C)C)nc21` [Example 151, 4-(3-(4-chloro-3-fluorophenyl)-1-(1-methoxy-2-methylpropan-2-yl)-1H-pyrrolo[2,3-b]pyridine-6-carbonyl)-3,3-dimethylpiperazin-2-one], the IC50 is < 20 nM.

Take `Cc1cc(N2CCN(C(=O)c3ccc4c(-c5ccc(Cl)c(F)c5)cn(C5(C)CCC5)c4n3)C(C)(C)C2)nc(C)c1C(=O)O` [Example 121, 6-(4-(3-(4-chloro-3-fluorophenyl)-1-(1-methylcyclobutyl)-1H-pyrrolo[2,3-b]pyridine-6-carbonyl)-3,3-dimethylpiperazin-1-yl)-2,4-dimethylnicotinic acid]: the IC50 was < 20 nM.

For the molecule `COc1ccc(-c2cn(CC(C)C)c3nc(C(=O)N4CCNC(=O)C4(C)C)ccc23)cc1OC` [Example 145, 4-(3-(3,4-dimethoxyphenyl)-1-isobutyl-1H-pyrrolo[2,3-b]pyridine-6-carbonyl)-3,3-dimethylpiperazin-2-one], the IC50 is > 10000 nM.

Turning to `Cc1cc(N2CCN(C(=O)c3ccc4c(-c5ccc(Cl)c(F)c5)cn(C(C)(C)C)c4n3)[C@@H](C)C2)nc(C)c1C(=O)O` [Example 179, (S)-6-(4-(1-(tert-butyl)-3-(4-chloro-3-fluorophenyl)-1H-pyrrolo[2,3-b]pyridine-6-carbonyl)-3-methylpiperazin-1-yl)-2,4-dimethyinicotinic acid], the IC50 was in the range of 20 to 10000 nM.

For `CC(C)(C)n1cc(-c2ccc(Cl)c(F)c2)c2ccc(C(=O)N3CCC4(CCNC4=O)CC3)nc21` [Example 13, 8-(1-(tert-butyl)-3-(4-chloro-3-fluorophenyl)-1H-pyrrolo[2,3-b]pyridine-6-carbonyl)-2,8-diazaspiro[4.5]decan-1-one], the IC50 is 20 to 10000 nM.

On to `CC(C)Cn1cc(-c2cccc(C#N)c2)c2ccc(C(=O)N3CCNC(=O)C3(C)C)nc21` [Example 117, 3-(6-(2,2-dimethyl-3-oxopiperazine-1-carbonyl)-1-isobutyl-1H-pyrrolo[2,3-b]pyridin-3-yl)benzonitrile], for which the IC50 was in the range of 20 to 10000 nM.

Consider `CC(C)Cn1cc(-c2ccc3c(c2)OCO3)c2ccc(C(=O)N3CCNC(=O)C3(C)C)nc21` [Example 223, 4-(3-(benzo[d][1,3]dioxol-5-yl)-1-isobutyl-1H-pyrrolo[2,3-b]pyridine-6-carbonyl)-3,3-dimethylpiperazin-2-one], for which the IC50 was 20 to 10000 nM.

With `CC(C)Cn1cc(-c2ccc(Cl)c(F)c2)c2ccc(C(=O)N3CCC(CC(=O)O)CC3)cc21` [Example 204, 2-(1-(3-(4-chloro-3-fluorophenyl)-1-isobutyl-1H-indole-6-carbonyl)piperidin-4-yl)acetic acid], the IC50 was 20 to 10000 nM.

`CC1(C)C(=O)NCCN1C(=O)c1ccc2c(n1)c(C1CC1)nn2-c1ccc(Cl)c(F)c1` [Example 77, 4-(1-(4-chloro-3-fluorophenyl)-3-cyclopropyl-1H-pyrazolo[4,3-b]pyridine-5-carbonyl)-3,3-dimethylpiperazin-2-one]: the IC50 lay in the range of 20 to 10000 nM.

In the case of `Cc1cc(N(C)C2CCN(C(=O)c3ccc4c(-c5ccc(Cl)c(F)c5)cn(C(C)(C)C)c4n3)CC2C)nc(C)c1C(=O)O` (mixture of isomers) [Example 199, 6-((1-(1-(tert-butyl)-3-(4-chloro-3-fluorophenyl)-1H-pyrrolo[2,3-b]pyridine-6-carbonyl)-3-methylpiperidin-4-yl)(methyl)amino)-2,4-dimethylnicotinic acid], the IC50 fell in the range of 20 to 10000 nM.

`CNC(=O)CN1CCN(C(=O)c2ccc3c(-c4ccc(Cl)c(F)c4)cn(C(C)(C)C)c3n2)C(C)(C)C1=O` [Example 6, 2-(4-(1-(tert-butyl)-3-(4-chloro-3-fluorophenyl)-1H-pyrrolo[2,3-b]pyridine-6-carbonyl)-3,3-dimethyl-2-oxopiperazin-1-yl)-N-methylacetamide]: the IC50 was < 20 nM.

For the molecule `COCC(C)(C)n1cc(-c2ccc(Cl)c(F)c2)c2ccc(C(=O)N3CCN(c4cc(C)c(C(=O)O)c(C)n4)CC3(C)C)nc21` [Example 152, 6-(4-(3-(4-chloro-3-fluorophenyl)-1-(1-methoxy-2-methylpropan-2-yl)-1H-pyrrolo[2,3-b]pyridine-6-carbonyl)-3,3-dimethylpiperazin-1-yl)-2,4-dimethylnicotinic acid], the IC50 was < 20 nM.
